Consider 14 molecules from PubChem BioAssay (NCI).

Values joined by “and” are separate entries in the source; they are usually repeats but may differ in a detail not shown here. Identical values can stand only once.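 Cultured in 96-well plates, cells were exposed to test compound for 48 hours across five concentrations. The concentration for 50% growth inhibition is given as GI50. Definition used: TGI = concentration required for complete inhibition of growth.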 Some results are limits rather than exact numbers.

Common to all, as to assay: NCI tumour cell line growth inhibition, 48 h
The subject of experiment [1] is A549 NSCLC.
The test system of experiment [2] is HL-60(TB) leukemia.
Experiment [3] deals with KM12 colon.
Experiment [4] relates to LOX IMVI melanoma.
The subject of experiment [5] is MALME-3M melanoma.
Experiment [6] has as its system MDA-MB-435.
Experiment [7] has as its system NCI-H522 lung.
The subject of experiment [8] is OVCAR-5 ovarian.
For experiment [9], the system named is SN12C renal.

Consider `O=[N+]([O-])c1cc(F)ccc1S(=O)(=O)c1ccccc1`, for which the TGI in [1], in [2], in [3], in experiment [4], in experiment [5] and in experiment [6] was > 10 µM throughout. For the same molecule, the TGI in [7] was 5.34 µM; in experiment [8], > 10 µM; in experiment [9], > 10 µM.

Take `CCSc1nc(=S)n(-c2ccccc2)c(C)c1C(C)=O`: the TGI in experiment [1], in [2], in experiment [3], in experiment [4], in experiment [5] and in experiment [6] was > 100 µM throughout. For the same molecule, the TGI in [7], in experiment [8] and in experiment [9] was > 100 µM each time.

On to `CCOC1NC(=O)Oc2cc3ccccc3cc21` (centres undefined), for which the TGI in experiment [1], in experiment [2], in [3], in experiment [4], in [5] and in experiment [6] was > 100 µM each time. Besides, the TGI in experiment [7], in [8] and in experiment [9] was > 100 µM throughout.

As to `CC(C)(C)NC(=O)/C(=C\Sc1ccccc1)c1ccccc1`, the TGI in [1] is > 100 µM; in [2] it was > 100 µM; in experiment [3], > 100 µM; in experiment [4] it was > 79.4 µM; in [5], > 100 µM; in experiment [6], > 100 µM. The TGI is > 52.1 µM in experiment [7], > 100 µM in experiment [8] and > 100 µM in [9].

As to `COC(=O)CCNc1c2ccccc2nc2cccc([N+](=O)[O-])c12`, the TGI in [1] was 0.132 µM and 0.726 µM; in experiment [2], 0.028 µM; in [3], 0.00451 µM; in experiment [4], 0.0172 µM and 0.053 µM; in experiment [5] it was 0.00226 µM; in experiment [6], 0.00104 µM. Further, the TGI was 0.00493 µM in experiment [7]; 0.108 µM and 0.0278 µM in experiment [8]; 0.0168 µM in experiment [9]. In addition, the GI50 in experiment [2] is 0.00274 µM; in experiment [4] it was 0.00367 µM and 0.0126 µM; in [7], 0.0016 µM.

Regarding `S=c1nc(N/N=C/c2cccs2)c2cn[nH]c2[nH]1`, the TGI in [1] was 14.5 µM; in experiment [2] it was > 100 µM; in experiment [3], 39.1 µM; in experiment [4], 74.6 µM; in [5], > 100 µM; in experiment [6], 51.9 µM. For the same molecule, the TGI in experiment [7] is 76.8 µM; in experiment [8] it was 49.5 µM; in experiment [9], > 100 µM.

`CCCCc1ccc(Nc2nc(Cl)c3ccn(C4CC(Oc5ccc(C)cc5)C(COc5ccc(C)cc5)O4)c3n2)cc1` (centres undefined): the TGI was > 46.4 µM in [1]; > 46.4 µM in experiment [2]; > 46.4 µM in [3]; > 46.4 µM in experiment [4]; 32.9 µM in [5]; > 46.4 µM in experiment [6]. For the same molecule, the TGI was 30.7 µM in experiment [7], > 31.6 µM in experiment [8] and > 46.4 µM in experiment [9].

In the case of `Cc1nc2c(cc1OCc1ccccc1)C(=O)C1=C(C2=O)C2OC(=O)CC2OC1(C)C` (centres undefined), the TGI in [1] amounted to 21.2 µM; in experiment [2] it was 0.371 µM; in [3], 2 µM; in [4], 0.475 µM; in experiment [5], 2.25 µM; in [6], 1.8 µM. The TGI in [7] was 0.387 µM; in experiment [8] it was 2.16 µM; in experiment [9], 0.443 µM.

As for `COC(=O)C(Cc1c[nH]c2ccccc12)NP(=O)(O)OCC1OC(n2cc(Br)c(=O)[nH]c2=O)CC1O` (centres undefined), the TGI in experiment [1], in experiment [2], in [3], in experiment [4], in experiment [5] and in experiment [6] was > 100 µM throughout. Besides, the TGI in [7], in experiment [8] and in experiment [9] was > 100 µM each time.

On to `O=c1[nH]c2nccn2c2c1SCCN2`, for which the TGI in [1], in experiment [2], in [3], in experiment [4], in experiment [5] and in [6] was > 100 µM each time. In addition, the TGI in [7], in [8] and in experiment [9] was > 100 µM throughout.

Turning to `COc1cccc2cc(C(=O)Nc3ccccc3)c(=N)oc12`, the TGI in experiment [1], in experiment [2], in [3], in experiment [4], in experiment [5] and in [6] was > 100 µM throughout. In addition, the TGI in [7], in [8] and in experiment [9] was > 100 µM each time.

With `O=[N+]([O-])c1cc2ccc(N(CCO)CCO)nc2nc1N(CCO)CCO`, the TGI in [1], in experiment [2], in [3], in [4], in experiment [5] and in experiment [6] was > 100 µM in each case. Also, the TGI in experiment [7], in experiment [8] and in experiment [9] was > 100 µM throughout.

Consider `COC(=O)[C@]1(c2cc3ccccc3[nH]2)CC2CN(C(=O)OCc3ccccc3)C1CC2=O` (some centres undefined), for which the TGI in experiment [1] is 91.5 µM; in experiment [2], 44.4 µM; in experiment [3] it was > 100 µM; in experiment [4], 66.6 µM; in experiment [5], 56.4 µM; in experiment [6], > 100 µM. Besides, the TGI in [7] was 66.8 µM; in experiment [8] it was 27.9 µM; in experiment [9], 80.6 µM.

On to `Nc1ccc2ccc(N3CCNCC3)nc2n1`, for which the TGI in experiment [1], in experiment [2], in experiment [3], in experiment [4], in experiment [5] and in experiment [6] was > 100 µM in each case. For the same molecule, the TGI in [7], in [8] and in experiment [9] was > 100 µM each time.
